Experimental data published in US7998971B2, “Combinations containing a 4-acylaminopyridine derivative” (BrainCells Inc., priority 2006, dated 2011).
Read-outs that look alike come from different tables or passages of the source. Values belong to the molecule of their own block, whether it stands above or below them.

What was measured:
[1] = system: human neural stem cells (hNSCs); experiment: Neuronal differentiation of human neural stem cells (TUJ-1 staining, concentration response curves); format: cell-based; conditions: for EC50: Homo sapiens, Neural stem cell; for maximum neuronal differentiation percent of positive control: MKC-231 CRC 0.01-31.6 uM, azakenpaullone CRC 0.001-3.2 uM
Description: Mitogen-free test media with a positive control for neuronal differentiation was used along with basal media without growth factors as a negative control. […]

mGlu7 and mGlu8 = conditions: above 1 μM; cited from earlier work
[2] = biological target: acetylcholinesterase (AChE) (Homo sapiens, UniProt P22303); conditions: cited from earlier work
Chain of acetylcholinesterase (AChE) (P22303 32-614, species assumed): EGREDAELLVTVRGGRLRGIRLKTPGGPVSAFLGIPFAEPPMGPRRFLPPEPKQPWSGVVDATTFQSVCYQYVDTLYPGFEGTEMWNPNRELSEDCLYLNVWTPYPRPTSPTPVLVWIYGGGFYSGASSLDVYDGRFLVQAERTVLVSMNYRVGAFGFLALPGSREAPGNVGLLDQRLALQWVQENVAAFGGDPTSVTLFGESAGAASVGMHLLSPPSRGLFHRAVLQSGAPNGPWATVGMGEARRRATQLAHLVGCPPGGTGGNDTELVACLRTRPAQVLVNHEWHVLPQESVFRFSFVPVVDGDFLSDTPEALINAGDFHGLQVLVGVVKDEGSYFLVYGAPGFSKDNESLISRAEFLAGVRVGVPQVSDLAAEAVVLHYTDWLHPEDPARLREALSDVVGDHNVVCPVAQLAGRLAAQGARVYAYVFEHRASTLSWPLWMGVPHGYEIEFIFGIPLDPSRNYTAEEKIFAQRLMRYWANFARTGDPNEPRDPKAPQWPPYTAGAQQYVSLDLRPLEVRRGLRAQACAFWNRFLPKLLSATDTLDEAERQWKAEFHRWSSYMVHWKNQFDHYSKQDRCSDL

[3] = agent alone, hNSCs, percentage of neuronal positive control, basal media subtracted, read-out: EC50 of neuronal differentiation, agent used alone

SMILES: Cc1onc(O)c1CC(N)C(=O)O (stereo not drawn) [AMPA, α-amino-3-hydroxy-5-methylisoxazole-4-propionic acid]
effect on differentiation at 0.316 μM ([1]; AMPA alone at 0.316 μM): no effect | EC50 ([1]; read-out: EC50 of neuronal differentiation, agent used alone): ~31.6 µM

SMILES: N[C@](CC1c2ccccc2Oc2ccccc21)(C(=O)O)[C@H]1C[C@@H]1C(=O)O [LY341495, (2S)-2-amino-2-(1S,2S-2-carboxycycloprop-1-yl)-3-(xanth-9-yl) propanoic acid]
activity against mGlu7 and mGlu8 at higher concentrations (mGlu7 and mGlu8): antagonist activity

SMILES: Cc1oc2nc3c(c(NC(=O)CN4CCCC4=O)c2c1C)CCCC3 [MKC-231, 2-(2-oxopyrrolidin-1-yl)-N-(2,3-dimethyl-5,6,7,8-tetrahydrofuro[2,3-b]-quinolin-4-yl)acetoamide]
AChE inhibitory activity [2]: does not have such inhibitory activity | EC50 [1, 3]: 8.6 µM | maximum neuronal differentiation percent of positive control ([1]; hNSCs): 53%

SMILES: Clc1ccc2c(c1)N=C(N1CCNCC1)c1ccccc1N2 [N-desmethylclozapine]
neurogenic activity ([1]; assays as disclosed herein): highly neurogenic

EC50 [1, 3]: 0.003 µM
SMILES: CC(C)c1c(C(=O)Nc2ccccc2)c(-c2ccccc2)c(-c2ccc(F)cc2)n1CC[C@@H](O)C[C@@H](O)CC(=O)O [atorvastatin]

SMILES: O=C1Cc2c([nH]c3ccc(Br)cc23)-c2ncccc2N1 [azakenpaullone]
maximum neuronal differentiation percent of positive control ([1]; hNSCs): 120%

EC50 ([1]; agent alone, hNSCs, extrapolated, read-out: EC50 of neuronal differentiation, agent used alone, estimated by extrapolation of the observed data): 4.4 µM
SMILES: C[C@]12CC[C@@H]3c4ccc(O)cc4CC[C@H]3[C@@H]1CC[C@@H]2O [estradiol]

SMILES: O=C1CC[C@@]2(O)[C@H]3Cc4ccc(O)c5c4[C@@]2(CCN3CC2CC2)[C@H]1O5 [naltrexone]
EC50 [1, 3]: 4.5 µM

EC50 [1, 3]: 3.6 µM
SMILES: CN(CCOc1ccc(CC2SC(=O)NC2=O)cc1)c1ccccn1 (stereo not drawn) [rosiglitazone]
